Experimental data published in patent US20200239587A1, “SENSITIZATION OF TUMORS TO THERAPIES THROUGH ENDOGLIN ANTAGONISM” (Cedars-Sinai Medical Center, priority 2016, published 2020).

What was measured:
22Rv1 cells = experiment: COMET assay; assay type: cell-based, human; settings: irradiated
Description: 22Rv1 were pre-treated with 1 μg/ml TRC105 24 hours prior to irradiation with 4 Gy. FIG. 22A) γ-H2AX or p53 bp were imunolocalized at 4, 24, and 48 hours post radiation. Foci per nuclei were quantified (n=100). FIG. 22B) Comet assay was performed 30 minutes and 24 hours following irradiation. The tail moment was quantified (n=50). FIG. 22C) Cell cycle analysis was performed on 22Rv1 at 0, 4, 8, and 24 hours post radiation in the presence of IgG or TRC105 (n=3) in 3 independent experiments. (***p<0.001, ****p<0.0001).

p53 in 22Rv1 cells = experiment: p53 status after irradiation; assay type: cell-based, human
Description: In search for an alternate process mediating TRC105 radiation sensitization the inventors examined changes in cell cycle. The impact of radiation on the cell cycle is well described, as causing a G2 cell cycle arrest that undergoes cell cycle redistribution. […] As SIRT1 has previously been reported to regulate p53 stability by de-acetylating p53, the inventors investigated p53 status with TRC105 treatment. 22Rv1 cells were treated with either TRC105 or 200 μM nicotinamide, an inhibitor of SIRT1 activity, prior to irradiation (4Gy). Cells were then collected at 0, 1, and 7 days post radiation to elucidate early and late p53 response. […] While loss-of-function p53 mutations are rare in prostate cancer, 90% of pancreatic cancers have p53 mutations. We therefore used two p53 mutant pancreatic cancer cell lines: HPAF-II and MIAPACA-2 to identify if TRC105 unresponsiveness to radiation was due to p53 loss of functionality.

prostatic epithelia = experiment: Cancer stem cell markers and sphere-forming units; assay type: cell-based; settings: antagonizing endoglin

TRC105: partially humanized monoclonal antibody that blocks BMP signaling; human-specific CD105 (endoglin) neutralizing antibody from Tracon Pharmaceuticals
tail moment (22Rv1 cells; 30 minutes post radiation, p<0.001): significant increase in tail moment
tail moment (22Rv1 cells; after 24 hours): no significant difference
acetylated and total-p53 (p53 in 22Rv1 cells; by 7 days post radiation): markedly increased
anti-apoptotic protein Bc1-2 (p53 in 22Rv1 cells; prior to 4Gy irradiation): decrease in the anti-apoptotic protein Bc1-2
p21 (p53 in 22Rv1 cells; prior to 4Gy irradiation): increase in p21
acetylated p53 (p53 in 22Rv1 cells; treatment prior to 4Gy, nicotinamide 200 μM): increase in acetylated p53
cancer stem cell markers (CD44, ALDH, Oct4, Sox) and sphere-forming units (prostatic epithelia): down regulated
